These results are taken from US20120058974A1, “Composition comprising pesticide and benzotriazole UV absorbers” (BASF SE, priority 2009, published 2012).

Series [1] is described as follows: Determination of the surface tension. The series is classed as physicochemical. The note with it: 25° C.; UV absorber concentrations from about 1 mg/l to 5,000 mg/l. On the procedure: The surface tension (ST) of the UV absorbers 1C and 1F was determined at 25° C. at concentrations of the UV absorber of from about 1 mg/l to 5,000 mg/l (Table 4). The ST of water to air is, for comparison, 72.4 mN/m, the ST of commercial surfactants is about 30-35 mN/m. […] It was also shown that UV absorbers according to the invention are similar in surface activity to commercial surfactants.

Series [2] can be described thus: UV-stabilizing effect: residual metaflumizone after exposure to light (Atlas Suntest), HPLC. The series is classed as physicochemical. To be noted: dried film; for Residual metaflumizone content (%) after 1 day: continuous light 1 day; for Residual metaflumizone content (%) after 1 week: continuous light seven days. On the procedure: UV-Stabilizing Effect A formulation comprising 100 g/l of metaflumizone and 40 g/l of UV absorber was prepared as described in Example 2. The formulation was diluted with water such that an active content of 10 g/l (Table 3) or 1 g/l (Table 4) was obtained.
About 20 mg of the formulation thus prepared were placed on a microscope slide, allowed to dry for 30 minutes and then exposed to light for one or seven days continuously (Atlas Suntest CRT plus, “Outdoor” setting, irradiation corresponds to the same spectrum and intensity as normal sunlight at midday in summer). After the exposure time, the samples were dissolved in dimethyl sulfoxide. The residual level of metaflumizone was determined by means of quantitative HPLC (column: BEH C18 1.7 μm 2.1×100; elution with a gradient of acetonitrile/0.1% H3PO4 rising from 5/95:95/5). For comparison, each exposure series run included a sample without UV absorber (reference). Evaluation: 2 samples were treated as blank samples by immediately redissolving them after drying, without exposure to light, and determining the metaflumizone content. The resulting mean was set equal to 100% and the remaining samples were standardized against that.
A commercial formulation of metaflumizone (Alverde®) comprising 240 g/l of metaflumizone was diluted with water to an active content of 10 g/l. Various UV absorbers were added (Table 5) and analyzed as described under Example 4A.

Where [3] appears, read: Alverde® diluted to 10 g/l metaflumizone, UV absorber added.
Where [4] appears, read: formulation 100 g/l metaflumizone + 40 g/l UV absorber diluted to 1 g/l metaflumizone.
[5] abbreviates: formulation 100 g/l metaflumizone + 40 g/l UV absorber diluted to 10 g/l metaflumizone.

With “3-(3-benzotriazol-2-yl-5-tert-butyl-4-hydroxyphenyl)propionic acid [tridecanol-EO18]ester [Example 1F]”, the “ST (surface tension)” value in series [1] was determined as 34.7 mN/m.

As to “p-Aminobenzoic acid ethoxylate (45) [Uvinul ® P25]”, the “ST (surface tension)” value in series [1] was determined as 56.9 mN/m.

Consider `COCCOCCOCCOCCOCCOCCOCCOC(=O)CCc1cc(-n2nc3ccccc3n2)c(O)c(C(C)(C)C)c1` [Example 1C, 3-(3-benzotriazol-2-yl-5-tert-butyl-4-hydroxyphenyl)propionic acid [Pluriol A350E]ester], for which the “Residual metaflumizone content (%) after 1 day” value in series [2] (setting [3]) amounted to 34%; in series [2] (setting [4]), 45%; in series [2] (setting [5]) it was 89%. The “Residual metaflumizone content (%) after 1 week” value in series [2] (setting [3]) came to 1%; in series [2] (setting [4]) it was 16%; in series [2] (setting [5]), 55%. In addition, the “ST (surface tension)” value in series [1] came out at 39.5 mN/m.

Take `COCCOCCOCCOCCOCCOCCOCCOC(=O)CCc1cc(-n2nc3ccc(Cl)cc3n2)c(O)c(C(C)(C)C)c1` [Example 1J, 2-(5-chloro-2H-benzotriazol-2-yl)-6-tert-butyl-4-hydroxyphenylpropionic acid [Pluriol A350E]ester]: in series [2] (setting [3]), the “Residual metaflumizone content (%) after 1 day” value is recorded as 46% and the “Residual metaflumizone content (%) after 1 week” value amounted to 30%.
